Where no end group is shown, it is not given here.
Assays:
[1] = system: human skin transplanted onto the backs of SCID mice, human lymphocytes injected; assay: HU-SCID mouse model: inflammatory sites in transplanted human skin; assay type: in vivo; settings: for number of inflammatory sites: Example 3, 100 μg alone, tail vein, mean +/- SD; for number of inflammatory sites / inflammatory sites: 24 hours; for inflammatory sites: Examples 4-7, 100 μg of peptide + 100 μg of human NDSK-II
Description: Human skin was transplanted onto the backs of SCID mice, and two weeks later human lymphocytes were injected into the peritoneum. The proceedings were according to Petzelbauer et al. (J. Invest. Dermatol. 1996, 107; 576-581). Then, fifteen mice thus prepared were injected in their tail veins with the following:
Twenty-four hours later, the human skin was removed and the number of inflammatory sites, expressed in cells per 0.3 mm^2, was evaluated and the mean value was determined with a standard deviation.

[2] = system: peripheral mononuclear blood cells (PBMC); assay: Adhesion and transmigration of PBMC on HUVEC on a collagen matrix; assay type: cell-based, human; settings: for adhesion / migration: PBMC; for conclusion: blocking of NDSK-II-induced PBMC adhesion/migration: Examples 9 and 10, with 100 μg NDSK-II
Description: (§1) Endothelial cells from human umbilical veins (HUVEC) were marked with a red fluorescent dye (Cell Tracker Orange, 1 μl/ml, Molecular Probes, Eugene, Oreg.) and were dispersed on a collagen matrix (Collaborative Biomedical Products, Bedford, Mass.). Upon confluence of the endothelial cells, peripheral mononuclear blood cells (PBMC) (10^5 cells per 25 mm^2) marked with a green fluorescent dye (Cell Tracker Green, 1 μl/ml, Molecular Probes of Messrs. Eugene, Origon) were superimposed. Thereafter, the cells were incubated at 37° C. for twelve hours.
(§2) Adhering cells that had transmigrated into the gel were photographed with a laser-scan microscope, were converted into pixels and were evaluated by means of an “NIH image” according to Gröger et al. (J. Immunol. Method 1999; 222: 101-109).
(§3) It was feasible to determine the number of adherent cells per 0.1 mm^2 such as mentioned under “adhesion”. It was feasible to determine the number of migrated cells per 0.04 mm^3 such as mentioned under “migration”. The mean value of three times three trials was evaluated together with the standard deviation.
100 μg of NDSK-II and Bbeta or Bbeta randomized were added to the collagen matrix according to Example 8 comprising the suspension of PBMC, and further proceedings were in accordance with Example 8.
100 μg of NDSK-II and Aalpha or Aalpha randomized were added to the collagen matrix according to Example 8 comprising the suspension of PBMC, and further proceedings were in accordance with Example 8.

[3] = system: monocytes; assay: Adhesion and transmigration of pure monocytes on HUVEC on a collagen matrix; assay type: cell-based, human
Description: as §1, §2, §3
The proceedings were in accordance with Example 11, except for pure monocytes being used instead of lymphocytes. 100 μg of NDSK-uPA or 100 μg of NDSK-II, respectively, was added to peptide Aalpha, randomized Aalpha, Bbeta or randomized Bbeta.
The proceedings were in accordance with Example 12, with pure monocytes being used. […] of NDSK-uPA or 100 μg of NDSK-II, respectively, was added to the short peptide salts Aalpha Gly Pro Arg (Pro)—NH2 acetate (Aalpha derivative) or Bbeta Gly His Arg Pro-OH acetate (Bbeta derivative).

[4] = system: cardiac muscle; assay: Rat cardiac artery occlusion / reperfusion, infarct planimetry
[5] = system: lymphocytes; assay: Adhesion and transmigration of pure lymphocytes on HUVEC on a collagen matrix; assay type: cell-based, human; settings: for adhesion / migration: lymphocytes
Description: as §1, §2, §3
Since PBMC substantially consists of a mixture of lymphocytes and monocytes, pure lymphocytes instead of PBMC (as in Examples 8-10) were used in Example 11.
100 μg of NDSK-uPA or 100 μg of NDSK-II, respectively, and Aalpha or Bbeta, respectively, were added to the collagen matrix according to Example 8 comprising endothelial cells and lymphocytes.
The proceedings were in accordance with Example 11, with pure lymphocytes being used. 100 μg of NDSK-uPA or 100 μg of NDSK-II, respectively, was added to the short peptide salts derived from Aalpha Gly Pro Arg (Pro)—NH2 acetate (Aalpha derivative) or derived from Bbeta Gly His Arg Pro-OH acetate (Bbeta derivative).

[6] = Example 9, 10 μg of peptide + 100 μg NDSK-II
[7] = Example 9, 100 μg of peptide + 100 μg NDSK-II
[8] = Example 9, 1000 μg of peptide + 100 μg NDSK-II
[9] = Example 12, 100 μg of peptide + 100 μg NDSK-II
[10] = Example 12, 100 μg of peptide + 100 μg NDSK-uPA
[11] = Example 12, substance alone, 100 μg
[12] = rat, 800 μg/kg intravenously at reperfusion after 25 min occlusion, 2 hours
[13] = Example 11, 100 μg of peptide + 100 μg NDSK-II
[14] = Example 11, 100 μg of peptide + 100 μg NDSK-uPA
[15] = Example 11, substance alone, 100 μg
[16] = Example 10, 10 μg of peptide + 100 μg NDSK-II
[17] = Example 10, 100 μg of peptide + 100 μg NDSK-II
[18] = Example 10, 1000 μg of peptide + 100 μg NDSK-II
[19] = Example 14, 100 μg of short peptide + 100 μg NDSK-II
[20] = Example 14, 100 μg of short peptide + 100 mg NDSK-uPA
[21] = Example 13, 100 μg of short peptide + 100 μg NDSK-II
[22] = Example 13, 100 μg of short peptide + 100 μg NDSK-uPA
[23] = Example 13, substance alone, 100 μg

Substance | number of inflammatory sites [1] | inflammatory sites [1] | conclusion: blocking of NDSK-II-induced PBMC adhesion/migration [2] | adhesion [3, 9] | migration [3, 9] | adhesion [3, 10] | migration [3, 10] | adhesion [3, 11] | migration [3, 11] | conclusion: blocking of lymphocytic adhesion and migration induced by NDSK-II and NDSK-uPA ([5]; Example 11) | adhesion [5, 13] | migration [5, 13] | adhesion [5, 14] | migration [5, 14] | adhesion [5, 15] | migration [5, 15] | also measured
GHRPLDKKREEAPSLRPAPPPISGGGYR [amino acids 1 to 28 of the beta chain of the fibrin] | 6+/−1.1 cells per 0.3 mm^2 | 14+/−2 per 0.3 mm^2 | blocks inflammations | 70 +/− 7 cells per 0.1 mm^2 | 7 +/− 5 cells per 0.04 mm^3 | 61 +/− 11 cells per 0.1 mm^2 | 8 +/− 3 cells per 0.04 mm^3 | 59 +/− 7 cells per 0.1 mm^2 | 5 +/− 1 cells per 0.04 mm^3 | completely blocks | 74 +/− 8 cells per 0.1 mm^2 | 17 +/− 3 cells per 0.04 mm^3 | 74 +/− 8 cells per 0.1 mm^2 | 19 +/− 2 cells per 0.04 mm^3 | 58 +/− 18 cells per 0.1 mm^2 | 14 +/− 1 cells per 0.04 mm^3 | conclusion: blocking of lymphocytic inflammation ([1]; Examples 4 to 7, with 100 μg NDSK-II): blocks lymphocytic inflammation; adhesion [2, 6]: 63 +/− 33 cells per 0.1 mm^2; migration [2, 6]: 7 +/− 4 cells per 0.04 mm^3; adhesion [2, 7]: 47 +/− 34 cells per 0.1 mm^2; migration [2, 7]: 5 +/− 4 cells per 0.04 mm^3; adhesion [2, 8]: 52 +/− 27 cells per 0.1 mm^2; migration [2, 8]: 10 +/− 6 cells per 0.04 mm^3; cardiac muscle threatened because of the vascular occlusion [4, 12]: 60%; endangered tissue that was dead [4, 12]: 29%; reduction of dead tissue ([4]; versus reference rats, p<0.05): 37%
GPRVVERHQSACKDSDWPFCSDEDWNYK (cysteine pairing not given here) [amino acids 1 to 28 of the alpha chain of the fibrin] | 4+/−1.1 cells per 0.3 mm^2 | 21+/−2.2 per 0.3 mm^2 | blocks the migration of PBMC only partially | 68 +/− 10 cells per 0.1 mm^2 | 9 +/− 6 cells per 0.04 mm^3 | 62 +/− 4 cells per 0.1 mm^2 | 8 +/− 5 cells per 0.04 mm^3 | 59 +/− 6 cells per 0.1 mm^2 | 5 +/− 1 cells per 0.04 mm^3 | no blocking activity | 131 +/− 4 cells per 0.1 mm^2 | 44 +/− 4 cells per 0.04 mm^3 | 131 +/− 4 cells per 0.1 mm^2 | 40 +/− 3 cells per 0.04 mm^3 | 77 +/− 4 cells per 0.1 mm^2 | 18 +/− 1 cells per 0.04 mm^3 | adhesion [2, 16]: 69 +/− 12 cells per 0.1 mm^2; migration [2, 16]: 21 +/− 4 cells per 0.04 mm^3; adhesion [2, 17]: 73 +/− 13 cells per 0.1 mm^2; migration [2, 17]: 15 +/− 6 cells per 0.04 mm^3; adhesion [2, 18]: 70 +/− 6 cells per 0.1 mm^2; migration [2, 18]: 13 +/− 5 cells per 0.04 mm^3
Gly His Arg Pro-OH acetate (GHRP-OH; also: acetate salt) [Bbeta derivative, short peptide salt derived from Bbeta] | – | – | – | – | – | – | – | – | – | – | – | – | – | – | – | – | adhesion [3, 19]: 68 +/− 7 cells per 0.1 mm^2; migration [3, 19]: 8 +/− 4 cells per 0.04 mm^3; adhesion [3, 20]: 61 +/− 11 cells per 0.1 mm^2; migration [3, 20]: 8 +/− 3 cells per 0.04 mm^3; adhesion ([3]; Example 14, substance alone): 52 +/− 7 cells per 0.1 mm^2; migration ([3]; Example 14, substance alone): 6 +/− 1 cells per 0.04 mm^3; adhesion [5, 21]: 69 +/− 7 cells per 0.1 mm^2; migration [5, 21]: 14 +/− 5 cells per 0.04 mm^3; adhesion [5, 22]: 70 +/− 8 cells per 0.1 mm^2; migration [5, 22]: 16 +/− 3 cells per 0.04 mm^3; adhesion [5, 23]: 58 +/− 10 cells per 0.1 mm^2; migration [5, 23]: 12 +/− 9 cells per 0.04 mm^3

From patent publication US7271144B2, “Therapeutic fibrin-derived peptides and uses thereof” (Fibrex Medical Research & Development GmbH, priority 2000, dated 2007)
